Measured values from patent publication US20240270759A1, “Preparation of SHP2 phosphatase inhibitors and its applications” (Ya Therapeutics Inc, priority 2021, published 2024).

target: T1, SHP2 full-length protein (Homo sapiens, UniProt Q06124); assay: SHP2 allosteric inhibition experiment (Homogeneous Full Length SHP-2 Assay Kit); format: biochemical; settings: full-length SHP2 0.06 nM with SHP-2 activating peptide; ten-point, 1 μM to 0.05 nM; read-out: IC50 Values of Compounds Inhibiting SHP2
T1 construct: purchased BPS Bioscience #79330
T1 sequence (Q06124 1-593): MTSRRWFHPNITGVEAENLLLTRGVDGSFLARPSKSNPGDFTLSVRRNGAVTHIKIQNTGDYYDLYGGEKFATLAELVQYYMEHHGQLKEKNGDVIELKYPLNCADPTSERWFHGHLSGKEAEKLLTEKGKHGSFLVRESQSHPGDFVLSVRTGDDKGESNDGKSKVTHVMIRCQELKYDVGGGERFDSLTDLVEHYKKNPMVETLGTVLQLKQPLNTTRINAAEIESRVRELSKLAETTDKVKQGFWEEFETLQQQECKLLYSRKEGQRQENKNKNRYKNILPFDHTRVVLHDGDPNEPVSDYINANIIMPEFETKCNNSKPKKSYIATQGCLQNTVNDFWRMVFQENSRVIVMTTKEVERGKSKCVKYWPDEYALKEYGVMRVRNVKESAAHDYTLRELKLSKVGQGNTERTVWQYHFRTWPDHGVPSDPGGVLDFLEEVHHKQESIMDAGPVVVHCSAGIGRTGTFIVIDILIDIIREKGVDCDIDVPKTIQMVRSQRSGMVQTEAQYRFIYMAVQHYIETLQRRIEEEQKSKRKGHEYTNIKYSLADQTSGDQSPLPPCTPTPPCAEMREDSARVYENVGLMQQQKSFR
Source text: The following further describes and explains the present invention in combination with test examples, but these examples are not meant to limit the scope of the present invention. SHP2 allosteric inhibition experiment
The purpose of this test is to measure the ability of the compounds to inhibit the allosteric activity of the SHP2 full-length protein. Experimental equipment: a centrifuge (5810R) is purchased from Eppendorf Company; pipettes are purchased from Eppendorf Company and Rainin Company, and microplate readers are purchased from BioTek Company of the United States, SynergyH1 multimode microplate reader.
Experimental method: Homogeneous Full Length SHP-2 Assay Kit (BPS Bioscience, #79330) is used to detect SHP2 activity in vitro. First, add 18 μL of Master Mix to 96-well low-adsorption microplate (NUNC, #267342), that is, 0.5 μL of SHP-2 activating Peptide and 5 mM DTT are included in the reaction buffer with a final concentration of 1×. After centrifugation, add 5 μL of the compound to be tested in DMSO (final DMSO content is 1% (V/V) in each well: dissolve the compound to be tested in DMSO to 1 mM, conduct triple dilution with a total of 10 concentration levels ranging from 1 μM to 0.05 nM in the reaction buffer. After diluting SHP2 in 1× reaction buffer to a final concentration of 0.06 nM, add it to the reaction microwell plate, 2 μL per well. Set a full activity control ([…]) and a full inhibition control (without SHP-2) on the reaction plate, and incubate the reaction mixture at room temperature for 60 minutes after centrifugation.
After incubation, add 25 μL of Substrate solution to each well, containing Substrate with a final concentration of 10 μM and DTT with a final concentration of 5 mM, and after centrifugation, continue to incubate at room temperature for 30 minutes. After the reaction, set the excitation wavelength at 340 nm, the emission wavelength at 455 nm, and the gain value to 75 on the Synergy H1 microplate reader (Biotek) for reading.
Take the full activity control and full inhibition control as the values of Max and Min, and calculate the percentage inhibition rate of the wells treated with the compound based on the positive control wells (DMSO control wells) and negative control wells (no kinase added) on the reaction plate, (inhibition rate percentage=100−[(test compound−Min average value)/(Max average value−Min average value)]×100%. IC50 values of test compounds are calculated by fitting percentage of inhibition and ten-point concentration data to a 4-parameter nonlinear logic formula using GraphPad prism.

| IC50 [nM] | Structure (SMILES) |
| --- | --- |
| ≤ 10 | CCn1ccc(-c2cccc(Sc3ncc4nc(N5CCC6(CC5)CO[C@@H](C)[C@H]6N)ccc4n3)c2Cl)n1 [Compound 68, (3S,4S)-8-(2-((2-chloro-3-(1-ethyl-1H-pyrazole-3-yl)phenyl)mercapto)pyridinyl[3,2-d]pyrimidine-6-yl)-3-methyl-2-oxa-8-azaspiro[4.5]decane-4-amine] |
| ≤ 10 | CC(C)n1ccc(-c2cccc(Sc3cnc4nc(N5CCC6(CC5)CO[C@@H](C)[C@H]6N)ncc4n3)c2Cl)n1 [Compound 70, (3S,4S)-8-(6-((2-chloro-3-(1-isopropyl-1H-pyrazole-3-yl)phenyl)mercapto)pteridine-2-yl)-3-methyl-2-oxa-8-azaspiro[4.5]decane-4-amine] |
| 10 to 100 | N[C@@H]1c2ccncc2CC12CCN(c1cnc3c(=O)n(-c4cccc(Cl)c4Cl)c(=O)[nH]c3n1)CC2 [Compound 15, (S)-7-(5-Amino-5,7-dihydrospiro [cyclopenta[c]pyridine-6,4′-piperidine]-1′-yl)-3-(2,3-dichlorophenyl)pteridine-2,4(1H,3H)-dione] |
| ≤ 10 | Nc1nccc(-n2c(=O)[nH]c3nc(N4CCC5(CC4)Cc4ncccc4[C@H]5N)cnc3c2=O)c1Cl [Compound 19, (S)-3-(2-amino-3-chloropyridine-4-yl)-7-(5-amino-5,7-dihydrospiro[cyclopenta[b]pyridine-6,4′-piperidine]-1′-yl)pteridine-2,4(1H,3H)-dione] |
| ≤ 10 | C[C@@H]1OCC2(CCN(c3ccc4nc(Sc5cccc(NC(=O)c6c(O)nc7n(c6=O)CCCC7)c5Cl)cnc4n3)CC2)[C@@H]1N [Compound 97, N-(3-((6-((3S,4S)-4-amino-3-methyl-2-oxa-8-azaspiro[4.5]decane-8-yl)pyridinyl[2,3-b]pyrazine-2-yl)mercapto)-2-chlorophenyl)-2-hydroxy-4-oxo-6,7,8,9-tetrahydro-4H-p yridinyl[1,2-a]pyrimidine-3-carboxamide] |
| ≤ 10 | C[C@@H]1OCC2(CCN(c3ncc(Sc4cccc(NC(=O)c5cnccn5)c4Cl)cn3)CC2)[C@@H]1N [Compound 126, N-(3-((2-((3S,4S)-4-amino-3-methyl-2-oxa-8-azaspiro[4.5]decane-8-yl)pyrimidine-5-yl)mercapto)-2-chlorophenyl)pyrazine-2-carboxamide] |
| 10 to 100 | N[C@@H]1c2cccnc2CC12CCN(c1cnc3c(=O)n(-c4cccc(Cl)c4Cl)c(=O)[nH]c3n1)CC2 [Compound 14, (S)-7-(5-Amino-5,7-dihydrospiro [cyclopenta[b]pyridine-6,4′-piperidine]-1′-yl)-3-(2,3-dichlorophenyl)pteridine-2,4(1 H,3H)-dione] |
| ≤ 10 | C[C@@H]1OCC2(CCN(c3cnc(Sc4cccc(-c5ccncn5)c4Cl)nc3)CC2)[C@@H]1N [Compound 106, (3S,4S)-8-(2-((2-chloro-3-(pyrimidine-4-yl)phenyl)mercapto)pyrimidine-5-yl)-3-methyl-2-oxa-8-azaspiro[4.5]decane-4-amine] |
| ≤ 10 | Nc1nccc(-n2c(=O)[nH]c3nc(N4CCC5(CC4)Cc4cccnc4[C@H]5N)cnc3c2=O)c1Cl [Compound 22, (S)-3-(2-amino-3-chloropyridine-4-yl)-7-(7-amino-5,7-dihydrospiro[cyclopenta[b]pyridine-6,4′-piperidine]-1′-yl)pteridine-2,4(1H,3H)-dione] |
| ≤ 10 | C[C@@H]1OCC2(CCN(c3ncc(Sc4cccc(-c5cnccn5)c4Cl)nn3)CC2)[C@@H]1N [Compound 135, (3S,4S)-8-(6-((2-chloro-3-(pyrazine-2-yl)phenyl)mercapto)-1,2,4-triazine-3-yl)-3-methyl-2-oxa-8-azaspiro[4.5]decane-4-amine] |
| ≤ 10 | C[C@@H]1OCC2(CCN(c3ncc4nc(Sc5cccc(NC(=O)c6ccncn6)c5Cl)cnc4n3)CC2)[C@@H]1N [Compound 82, N-(3-((2-((3S,4S)-4-amino-3-methyl-2-oxa-8-azaspiro[4.5]decane-8-yl)pteridine-6-yl)mercapto)-2-chlorophenyl)pyrimidine-4-carboxamide] |
| ≤ 10 | Nc1nccc(-n2c(=O)[nH]c3nc(N4CCC5(CC4)Cc4ccncc4[C@H]5N)cnc3c2=O)c1Cl [Compound 21, (S)-3-(2-amino-3-chloropyridine-4-yl)-7-(7-amino-5,7-dihydrospiro[cyclopenta[c]pyridine-6,4′-piperidine]-1′-yl)pteridine-2,4(1H,3H)-dione] |
| ≤ 10 | C[C@@H]1OCC2(CCN(c3ncc(Sc4cccc(Nc5cccnc5)c4Cl)cn3)CC2)[C@@H]1N [Compound 119, (3S,4S)-8-(5-((2-chloro-3-(pyridine-3-amino)phenyl)mercapto)pyrimidine-2-yl)-3-me thyl-2-oxa-8-azaspiro[4.5]decane-4-amine] |
| ≤ 10 | C[C@@H]1OCC2(CCN(c3ncc4nc(Sc5cccc(NC(=O)c6c(O)nc7n(c6=O)CCCC7)c5Cl)cnc4n3)CC2)[C@@H]1N [Compound 88, N-(3-((2-((3S,4S)-4-amino-3-methyl-2-oxa-8-azaspiro[4.5]decane-8-yl)pteridine-6-yl)mercapto)-2-chlorophenyl)-2-hydroxy-4-oxo-6,7,8,9-tetrahydro-4H-pyridinyl[1,2-a]p yrimidine-3-carboxamide] |
| ≤ 10 | CC(C)n1ccc(-c2cccc(Sc3ncc4nc(N5CCC6(CC5)CO[C@@H](C)[C@H]6N)cnc4n3)c2Cl)n1 [Compound 69, (3S,4S)-8-(2-((2-chloro-3-(1-isopropyl-1H-pyrazole-3-yl)phenyl)mercapto)pteridine-6-yl)-3-methyl-2-oxa-8-azaspiro[4.5]decane-4-amine] |
| ≤ 10 | C[C@@H]1OCC2(CCN(c3cnc(Sc4cccc(-c5ccn(C)n5)c4Cl)nc3)CC2)[C@@H]1N [Compound 99, (3S,4S)-8-(2-((2-chloro-3-(1-methyl-1H-pyrazole-3-yl)phenyl)mercapto)pyrimidine-5-yl)-3-methyl-2-oxa-8-azaspiro[4.5]decane-4-amine] |
| ≤ 10 | CCn1ccc(-c2cccc(Sc3ccc(N4CCC5(CC4)CO[C@@H](C)[C@H]5N)nn3)c2Cl)n1 [Compound 127, (3S,4S)-8-(3-((2-chloro-3-(1-ethyl-1H-pyrazole-3-yl)phenyl)mercapto)pyridazine-6-yl)-3-methyl-2-oxa-8-azaspiro[4.5]decane-4-amine] |
| ≤ 10 | C[C@@H]1OCC2(CCN(c3cnc4nc(Sc5cccc(NC(=O)c6ccncn6)c5Cl)ncc4n3)CC2)[C@@H]1N [Compound 81, N-(3-((6-((3S,4S)-4-amino-3-methyl-2-oxa-8-azaspiro[4.5]decane-8-yl)pteridine-2-yl)mercapto)-2-chlorophenyl)pyrimidine-4-carboxamide] |
| ≤ 10 | C[C@@H]1OCC2(CCN(c3cnc4c(=O)n(-c5ccnc(NC6CC6)c5Cl)c(=O)[nH]c4n3)CC2)[C@@H]1N [Compound 23] |
| 10 to 100 | C[C@@H]1OCC2(CCN(c3cnc(Sc4cccc(Nc5ncccn5)c4Cl)nc3)CC2)[C@@H]1N [Compound 108, (3S,4S)-8-(2-((2-chloro-3-(pyrimidine-2-amino)phenyl)mercapto)pyrimidine-5-yl)-3-methyl-2-oxa-8-azaspiro[4.5]decane-4-amine] |
| ≤ 10 | C[C@@H]1OCC2(CCN(c3ccc4nc(Sc5cccc(-c6ccncn6)c5Cl)ncc4n3)CC2)[C@@H]1N [Compound 77, (3S,4S)-8-(2-((2-chloro-3-(pyrimidine-4-yl)phenyl)mercapto)pyridinyl[3,2-d]pyrimidine-6-yl)-3-methyl-2-oxa-8-azaspiro[4.5]decane-4-amine] |
